Activity calls are given as the source filed them. How the calls were made is not given here.

The term IC50 denotes the concentration needed to halve the response being measured.

This experiment relates to StAR promoter luciferase reporter cells, luminescence inhibition. Description: nonselective StAR promoter luciferase inhibitors – cell-based, luminescence, dose response, counter-screen for LRH-1 inverse agonist project, late-stage follow-up (AID 651975). (In general: The purpose of a counterscreen is to sort out artefacts and off-target activity.)
For the compound `O=C(COC(=O)c1ccc(Br)cc1)Nc1ccccc1Br`, the IC50 is > 35.9 µM (inactive).

Turning to `Cc1cc(C)c2sc(NC(=O)c3ccc([N+](=O)[O-])o3)nc2c1`, the IC50 is > 35.9 µM (inactive).

Consider `COc1ccc(NC(=O)CSc2nnc3ccc(-c4cccnc4)nn23)cc1OC`, for which the IC50 was > 35.9 µM (inactive).

On to `CCOc1ccc(OCCC(=O)OCC(=O)Nc2ccc3c(c2)OCCO3)cc1`, for which the IC50 was > 35.9 µM (inactive).

Regarding `Cc1nn(CC(=O)Nc2ccc3c(c2)OCCO3)c(C)c1[N+](=O)[O-]`, the IC50 was > 35.9 µM (inactive).

For `O=C(Nc1nc2c(Cl)cccc2s1)c1ccc([N+](=O)[O-])o1`, the IC50 is > 35.9 µM (inactive).

On to `CCCN(CC(=O)Nc1ccc(C(C)=O)cc1)CC(=O)Nc1ccccc1C`, for which the IC50 is > 35.9 µM (inactive).

With `COc1ccc(CCNC(=O)COC(=O)Cc2ccccc2[N+](=O)[O-])cc1`, the IC50 is > 35.9 µM (inactive).

Regarding `O=C(CSc1nnc(CNC(=O)c2c(F)cccc2F)o1)Nc1ccc2c(c1)OCCO2`, the IC50 is > 35.9 µM (inactive).

For the compound `COc1ccc(NS(=O)(=O)c2ccc(OCC(=O)N3CCN(C)CC3)cc2)cc1Cl`, the IC50 is > 35.9 µM (inactive).

On to `COc1ccc(CCNC(=O)CSc2nc3[nH]c(=O)cc(O)c3s2)cc1`, for which the IC50 was > 35.9 µM (inactive).

`Cc1ccc(NC(=O)COC(=O)c2cc(=O)c3ccccc3o2)c(Br)c1`: the IC50 was > 35.9 µM (inactive).

Turning to `COc1ccc(CC(NC(C)=O)C(=O)NC2CCN(c3nnnn3-c3ccccc3)CC2)cc1` (centres undefined), the IC50 is > 35.9 µM (inactive).

Turning to `CCOc1ccc(NC(=O)CSc2nccn(-c3ccc4c(c3)OCCO4)c2=O)cc1`, the IC50 is > 35.9 µM (inactive).

Source of the values: PubChem BioAssay AID651975 (The Scripps Research Institute Molecular Screening Center, 2013).
